Key:
[1] = test system: Human immunodeficiency virus 1; test: MMV: HIV CXCR4-tropic env NL4-3 pseudovirus assay produces luciferase signal in lieu of replicating viral particles Day 3 pi, U87-CD4-CXCR4, % inhibition at 5 mM compound; assay type: functional; design: dose or concentration left out as unconfirmed; details: Human immunodeficiency virus 1, NL4-3, U87.CD4.CXCR4, 72 h
[2] = MMV: MTT Cytotoxicity Assay Day 3 pi, U87-CD4-CCR5 cells, % cell death @ 5mM compound; assay type: toxicity, cell-based; details: human, u87-cd4-ccr5, 5000 µM
[3] = MMV: MTT Cytotoxicity Assay Day 3 pi, U87-CD4-CXCR4 cells, % cell death @ 5mM compound; assay type: toxicity, cell-based; details: human, u87-cd4-cxcr4, 5000 µM
[4] = MMV: MTT Cytotoxicity Assay Day 7 pi of Assay #6 (compound washed out Day 1 pi), U87-CD4-CCR5 cells, % cell death @ 5mM compound; assay type: toxicity, cell-based; details: human, u87-cd4-ccr5, 5000 µM
[5] = MMV: MTT Cytotoxicity Assay Day 7 pi of Assay #7 (compound washed out Day 1 pi), U87-CD4-CXCR4 cells, % cell death @ 5mM compound; assay type: toxicity, cell-based; details: human, u87-cd4-cxcr4, 5000 µM
[6] = MMV: MTT Cytotoxicity Assay Day 7 pi of Assay #10 (NO washout), U87-CD4-CCR5 cells, % cell death @ 5mM compound; assay type: toxicity, cell-based; details: human, u87-cd4-ccr5, 5000 µM
[7] = MMV: MTT Cytotoxicity Assay Day 7 pi of Assay #11 (NO washout), U87-CD4-CXCR4 cells, % cell death @ 5mM compound; assay type: toxicity, cell-based; details: human, u87-cd4-cxcr4, 5000 µM
[8] = test system: Human immunodeficiency virus 1; test: MMV: HIV JRFL CCR5-tropic replication-competent virus, virus & compound washed out Day 1 pi, P24 ELISA Day 7 pi, U87-CD4-CCR5, % inhibition at 5 mM compound; assay type: functional; design: dose or concentration left out as unconfirmed; details: Human immunodeficiency virus 1, JR-FL

Structure (SMILES) | inhibition [1] | % Cell Death [2] | % Cell Death [3] | % Cell Death [4] | % Cell Death [5] | % Cell Death [6] | % Cell Death [7] | inhibition [8]
COc1ccc(Nc2nc(N/N=C/c3ccc(O)cc3)nc(Nc3ccc([N+](=O)[O-])cc3)n2)cc1 | 7% | 11 | 23 | 33 | 50 | 11 | 0 | –
N=c1n(CCN2CCCCC2)c2ccccc2n1CC(=O)c1ccc(Cl)c(Cl)c1 | 0% | -21 | 9 | -5 | 4 | -3 | -14 | –
OC(CNCC1CCCO1)Cn1c2ccc(Cl)cc2c2cc(Cl)ccc21 (stereo unspecified) | 0% | 11 | 15 | 26 | -28 | -2 | -7 | –
Cc1cc(C)cc(Nc2cc(C)nc3nc(C(F)(F)F)nn23)c1 | 7% | 10 | 26 | 29 | -6 | -23 | -5 | –
O=C(Nc1ccc(Br)cc1)Nc1cccc(Cl)c1 | 9% | 9 | 22 | 8 | -4 | 44 | 64 | –
CCCCCC(=O)N1c2ccccc2N=C2CC(c3ccc(OC)c(OC)c3)CC(O)=C2C1c1ccc(C(F)(F)F)cc1 (stereo unspecified) | 2% | 11 | 14 | 5 | -21 | 16 | -20 | –
CN(C)CCNc1cc(-c2ccccc2)nc2ccccc12 | 5% | 26 | 18 | 6 | -12 | 71 | 85 | –
COc1ccc2nc(C)cc(Nc3cccc(O)c3)c2c1.Cl | 7% | 16 | 39 | 10 | 0 | 43 | 76 | –
COc1cccc(NC(=O)Cn2c(C)c(C#N)c3ccccc32)c1 | 8% | 23 | 47 | 29 | -5 | 12 | -1 | –
CCC(c1ccccc1)c1nn2c(-c3cccs3)nnc2s1 (stereo unspecified) | 9% | 3 | 41 | 18 | 28 | 41 | 73 | 0%
Oc1ccc(-c2nc(-c3ccc4oc5ccc(-c6[nH]c(-c7ccc(O)cc7)nc6-c6ccccc6)cc5c4c3)c(-c3ccccc3)[nH]2)cc1 | 1% | -2 | 46 | -12 | 17 | 56 | 89 | –
CCOc1cc2c(cc1OCC)C(c1cc(OC)c(O)cc1Cl)NCC2 (stereo unspecified) | 10% | 31 | 1 | 7 | -19 | 25 | 20 | –
FC(F)(F)c1cccc(Nc2nc(-c3ccccc3)nc3ncccc23)c1 | 9% | 1 | -16 | 0 | 15 | 19 | -17 | –
Cc1ccnc(NC(c2cccc(OCc3ccccc3)c2)c2ccc3cccnc3c2O)c1 (stereo unspecified) | 1% | 19 | -12 | 49 | 37 | -16 | 27 | –
CC(NCc1ccccc1)c1cc(Cl)ccc1O (stereo unspecified) | 6% | 1 | 6 | -2 | -15 | 26 | -3 | –
Cn1c(C(=O)c2cccc3ccccc23)nc2ccccc21 | 9% | -32 | 32 | -37 | -12 | 2 | -77 | –
COc1ccc(C2NCCc3c2[nH]c2ccccc32)cc1CN1CCN(c2ccc(F)cc2)CC1.Cl (stereo unspecified) | 3% | 27 | 35 | 24 | -8 | 14 | -62 | –

Structure (SMILES) | inhibition [1] | % Cell Death [2] | % Cell Death [3] | % Cell Death [4] | % Cell Death [5] | % Cell Death [6] | % Cell Death [7] | inhibition [8]
CCn1c(CN2CCN(Cc3ccccc3)CC2)nc2cc(NC(=O)c3cccs3)ccc21 | 1% | 21 | 21 | 12 | -27 | 10 | -27 | –
Cc1ccc2cc3c(N)c4c(C)ccc(C)c4nc3nc2c1 | 5% | -9 | -14 | 46 | -5 | 18 | 31 | –
CCN(CC)CCCNc1ccnc2cc3ccccc3cc12 | 5% | 41 | 35 | 51 | 55 | 60 | 85 | –
COc1ccccc1NC1=C(N2CCCCC2)C(=O)c2ccccc2C1=O | 5% | 34 | 15 | 22 | 8 | 19 | -50 | 1%
Cc1cc(NC(=O)C2c3ccccc3C(=O)N(CC(C)C)C2c2cccs2)no1 (stereo unspecified) | 8% | 23 | 26 | 55 | -20 | 36 | -16 | 7%
Cl.Oc1ccccc1CNCC12CC3CC(CC(C3)C1)C2 | 3% | -8 | 15 | 20 | -11 | 37 | -2 | –
CC1CCN(Cc2ccc(NC(=O)c3cc4ccc5cccnc5c4[nH]3)cc2)CC1 | -1% | 9 | 23 | 17 | -14 | 3 | -7 | –
CCOc1cc2c(cc1OCC)C(c1cc(C)c(O)c(C)c1)NCC2.Cl (stereo unspecified) | 5% | 4 | 16 | 18 | -10 | -3 | -11 | –
CCN(CC)c1cc(C)c2cc(NC(=O)c3cccc(OC)c3)ccc2n1 | 7% | -1 | 5 | 3 | -25 | 39 | -2 | –
Cc1ccc(NC(=O)Nc2cccc(Cl)c2)cc1F | 0% | -7 | 26 | 12 | -22 | 8 | -5 | –
CSc1ccccc1C(=O)Nc1nc(-c2ccccn2)cs1 | 4% | 28 | 86 | 18 | 28 | 3 | 2 | –
Br.CCn1c2c(c(=N)c3c1CCC3)CCCC2 | -2% | -56 | 30 | -8 | -30 | -14 | -11 | –
O=C(Cc1ccccc1)NC(c1ccc(Cl)cc1)c1c(O)ccc2ccccc12 (stereo unspecified) | 3% | 11 | 23 | 18 | -8 | 2 | -16 | –
Cc1cc(Nc2ccc(Cl)cc2)n2nc(C(F)(F)F)nc2n1 | 2% | 27 | 12 | 46 | -20 | 56 | -18 | –
COc1ccc(CN2CCN(Cc3ccccc3)CC2)c(O)c1 | -2% | 16 | -16 | -1 | 53 | 4 | 10 | –
Br.Cc1ccc(C)c(-c2csc(Nc3ccc(C)c(C)c3)n2)c1 | -1% | -10 | 21 | 5 | 39 | 48 | 28 | –
CCCCc1c(CCC)c(=N)c2ccccc2n1C.I | 7% | -13 | 21 | 27 | 55 | -4 | -12 | –

From ChEMBL document CHEMBL3301472, “MMV Malaria Box HIV and cytotoxicity screening”
